Laboratory results reported in the kinase profiling compilation of Christmann-Franck et al. (2016).

Legend:
Experiment in all cases: KINOMEscan competition binding
Conditions in all cases: compound 10.0 µM
[1] = molecular target: STK17A (human) (UniProt Q9UEE5)
[2] = molecular target: DYRK1B (human) (UniProt Q9Y463)
[3] = molecular target: RPS6KA1 KD1 (human) (UniProt Q15418)
[4] = molecular target: ACVR2B (human) (UniProt Q13705)
[5] = molecular target: RPS6KA5 KD1 (human) (UniProt O75582)
[6] = molecular target: WEE2 (human) (UniProt P0C1S8)
[7] = molecular target: CDK18 (human) (UniProt Q07002)
[8] = molecular target: TYRO3 (human) (UniProt Q06418)
[9] = molecular target: MKNK1 (human) (UniProt Q9BUB5)
[10] = molecular target: STK3 (human) (UniProt Q13188)
[11] = molecular target: MAP3K11 (human) (UniProt Q16584)
[12] = molecular target: DAPK3 (human) (UniProt O43293)
[13] = molecular target: EPHA3 (human) (UniProt P29320)
[14] = molecular target: PHKG2 (human) (UniProt P15735)
[15] = molecular target: STK32C (human) (UniProt Q86UX6)
[16] = molecular target: CSNK1G3 (human) (UniProt Q9Y6M4)
[17] = molecular target: PAK4 (human) (UniProt O96013)
[18] = molecular target: FES (human) (UniProt P07332)
[19] = molecular target: JAK1 JH2 pseudokinase (human) (UniProt P23458)
[20] = molecular target: JAK3 JH1 catalytic (human) (UniProt P52333)
[21] = molecular target: AURKC (human) (UniProt Q9UQB9)
[22] = molecular target: CDKL2 (human) (UniProt Q92772)
[23] = molecular target: MARK2 (human) (UniProt Q7KZI7)
[24] = molecular target: MAPK13 (human) (UniProt O15264)
[25] = molecular target: AURKA (human) (UniProt O14965)
[26] = molecular target: FLT4 (human) (UniProt P35916)
[27] = molecular target: AKT1 (human) (UniProt P31749)
[28] = molecular target: NLK (human) (UniProt Q9UBE8)
[29] = molecular target: DDR2 (human) (UniProt Q16832)
[30] = molecular target: PIK3CD (human) (UniProt O00329)
[31] = molecular target: PKMYT1 (human) (UniProt Q99640)
[32] = molecular target: MYO3A (human) (UniProt Q8NEV4)
[33] = molecular target: MYLK4 (human) (UniProt Q86YV6)
[34] = molecular target: EPHB4 (human) (UniProt P54760)
[35] = molecular target: TXK (human) (UniProt P42681)
[36] = molecular target: ACVR1B (human) (UniProt P36896)
[37] = molecular target: EIF2AK2 (human) (UniProt P19525)
[38] = molecular target: MAP3K10 (human) (UniProt Q02779)
[39] = molecular target: ACVRL1 (human) (UniProt P37023)
[40] = molecular target: SYK (human) (UniProt P43405)

Sequence of DDR2 (human) (Q16832 whole entry, looked up): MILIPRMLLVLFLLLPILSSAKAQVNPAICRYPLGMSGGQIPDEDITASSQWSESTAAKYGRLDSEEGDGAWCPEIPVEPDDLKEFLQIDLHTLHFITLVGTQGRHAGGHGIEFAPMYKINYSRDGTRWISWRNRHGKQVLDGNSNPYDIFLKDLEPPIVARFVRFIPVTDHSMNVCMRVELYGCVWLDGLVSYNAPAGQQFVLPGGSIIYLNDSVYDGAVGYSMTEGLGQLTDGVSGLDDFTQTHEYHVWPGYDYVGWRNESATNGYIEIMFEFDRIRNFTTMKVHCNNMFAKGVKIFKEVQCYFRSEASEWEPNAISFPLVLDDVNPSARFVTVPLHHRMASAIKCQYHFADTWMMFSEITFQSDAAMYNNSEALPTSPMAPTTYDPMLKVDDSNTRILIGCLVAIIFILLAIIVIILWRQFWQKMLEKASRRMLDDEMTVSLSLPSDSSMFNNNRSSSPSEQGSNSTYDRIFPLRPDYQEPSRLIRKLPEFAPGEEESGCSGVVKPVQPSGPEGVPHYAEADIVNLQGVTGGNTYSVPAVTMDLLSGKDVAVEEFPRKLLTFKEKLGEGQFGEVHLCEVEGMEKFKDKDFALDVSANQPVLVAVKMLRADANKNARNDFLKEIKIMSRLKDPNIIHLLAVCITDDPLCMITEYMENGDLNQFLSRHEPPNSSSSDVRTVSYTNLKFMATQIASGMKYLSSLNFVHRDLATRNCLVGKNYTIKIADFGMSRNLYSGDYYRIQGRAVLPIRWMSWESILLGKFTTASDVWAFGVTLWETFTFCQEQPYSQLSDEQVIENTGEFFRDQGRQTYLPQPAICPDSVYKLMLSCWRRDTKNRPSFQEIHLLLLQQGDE
Sequence of MKNK1 (human) (Q9BUB5 whole entry, looked up): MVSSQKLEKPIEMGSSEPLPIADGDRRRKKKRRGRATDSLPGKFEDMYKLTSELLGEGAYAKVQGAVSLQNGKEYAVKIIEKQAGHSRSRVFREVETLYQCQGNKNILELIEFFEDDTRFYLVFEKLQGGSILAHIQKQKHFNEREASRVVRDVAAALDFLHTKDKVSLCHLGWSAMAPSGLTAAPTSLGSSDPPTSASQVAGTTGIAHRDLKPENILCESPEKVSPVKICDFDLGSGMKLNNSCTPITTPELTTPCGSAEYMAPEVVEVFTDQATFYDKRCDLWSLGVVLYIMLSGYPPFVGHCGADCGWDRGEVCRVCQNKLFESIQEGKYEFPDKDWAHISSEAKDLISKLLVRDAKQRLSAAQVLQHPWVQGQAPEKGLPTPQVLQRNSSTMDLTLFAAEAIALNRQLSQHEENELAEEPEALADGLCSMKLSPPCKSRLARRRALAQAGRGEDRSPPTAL
Sequence of AKT1 (human) (P31749 whole entry, looked up): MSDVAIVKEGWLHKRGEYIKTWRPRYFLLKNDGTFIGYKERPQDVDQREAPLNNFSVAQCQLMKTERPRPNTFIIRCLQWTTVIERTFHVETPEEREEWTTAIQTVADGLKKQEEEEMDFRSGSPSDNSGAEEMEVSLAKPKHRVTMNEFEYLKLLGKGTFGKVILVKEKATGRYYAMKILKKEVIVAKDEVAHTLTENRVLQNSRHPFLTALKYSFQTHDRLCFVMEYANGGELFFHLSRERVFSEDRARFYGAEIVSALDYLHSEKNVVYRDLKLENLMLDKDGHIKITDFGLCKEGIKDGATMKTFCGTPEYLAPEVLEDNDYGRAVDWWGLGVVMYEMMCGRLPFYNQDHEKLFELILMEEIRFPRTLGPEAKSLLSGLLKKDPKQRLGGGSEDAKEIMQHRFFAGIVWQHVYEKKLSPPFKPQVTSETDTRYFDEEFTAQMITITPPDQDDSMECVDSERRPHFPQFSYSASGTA
Sequence of FES (human) (P07332 whole entry, looked up): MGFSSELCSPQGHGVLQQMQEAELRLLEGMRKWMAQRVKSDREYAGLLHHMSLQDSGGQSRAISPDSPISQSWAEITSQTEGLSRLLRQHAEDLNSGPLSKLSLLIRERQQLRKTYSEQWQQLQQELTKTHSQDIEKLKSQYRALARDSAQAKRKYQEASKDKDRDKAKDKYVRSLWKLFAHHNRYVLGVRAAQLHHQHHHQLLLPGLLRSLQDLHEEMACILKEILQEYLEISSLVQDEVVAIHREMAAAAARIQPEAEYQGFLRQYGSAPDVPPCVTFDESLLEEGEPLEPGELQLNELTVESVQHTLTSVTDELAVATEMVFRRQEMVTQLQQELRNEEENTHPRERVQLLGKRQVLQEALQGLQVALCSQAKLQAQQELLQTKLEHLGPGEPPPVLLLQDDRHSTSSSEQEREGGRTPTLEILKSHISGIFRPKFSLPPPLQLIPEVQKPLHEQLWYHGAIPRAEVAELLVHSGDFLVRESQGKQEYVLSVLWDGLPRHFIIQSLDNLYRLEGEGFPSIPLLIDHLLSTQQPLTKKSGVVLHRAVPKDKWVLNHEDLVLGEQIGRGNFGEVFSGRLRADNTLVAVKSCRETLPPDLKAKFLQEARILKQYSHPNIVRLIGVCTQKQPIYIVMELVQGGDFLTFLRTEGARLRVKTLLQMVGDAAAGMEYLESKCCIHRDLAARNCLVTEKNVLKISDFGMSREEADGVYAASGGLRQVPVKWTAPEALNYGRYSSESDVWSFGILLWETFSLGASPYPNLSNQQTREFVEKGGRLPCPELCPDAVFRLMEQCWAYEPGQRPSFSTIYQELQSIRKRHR
Sequence of MYLK4 (human) (Q86YV6 whole entry, looked up): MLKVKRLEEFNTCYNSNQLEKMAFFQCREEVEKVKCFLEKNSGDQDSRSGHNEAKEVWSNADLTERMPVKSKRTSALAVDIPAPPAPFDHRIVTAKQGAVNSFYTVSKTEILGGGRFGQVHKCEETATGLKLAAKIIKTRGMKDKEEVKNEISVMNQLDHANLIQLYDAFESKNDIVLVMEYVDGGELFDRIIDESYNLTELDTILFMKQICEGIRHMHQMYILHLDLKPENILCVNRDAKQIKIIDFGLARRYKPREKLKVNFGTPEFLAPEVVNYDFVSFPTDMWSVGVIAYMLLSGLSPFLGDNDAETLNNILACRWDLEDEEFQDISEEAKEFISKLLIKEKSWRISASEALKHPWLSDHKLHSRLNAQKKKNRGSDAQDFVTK
Sequence of PAK4 (human) (O96013 whole entry, looked up): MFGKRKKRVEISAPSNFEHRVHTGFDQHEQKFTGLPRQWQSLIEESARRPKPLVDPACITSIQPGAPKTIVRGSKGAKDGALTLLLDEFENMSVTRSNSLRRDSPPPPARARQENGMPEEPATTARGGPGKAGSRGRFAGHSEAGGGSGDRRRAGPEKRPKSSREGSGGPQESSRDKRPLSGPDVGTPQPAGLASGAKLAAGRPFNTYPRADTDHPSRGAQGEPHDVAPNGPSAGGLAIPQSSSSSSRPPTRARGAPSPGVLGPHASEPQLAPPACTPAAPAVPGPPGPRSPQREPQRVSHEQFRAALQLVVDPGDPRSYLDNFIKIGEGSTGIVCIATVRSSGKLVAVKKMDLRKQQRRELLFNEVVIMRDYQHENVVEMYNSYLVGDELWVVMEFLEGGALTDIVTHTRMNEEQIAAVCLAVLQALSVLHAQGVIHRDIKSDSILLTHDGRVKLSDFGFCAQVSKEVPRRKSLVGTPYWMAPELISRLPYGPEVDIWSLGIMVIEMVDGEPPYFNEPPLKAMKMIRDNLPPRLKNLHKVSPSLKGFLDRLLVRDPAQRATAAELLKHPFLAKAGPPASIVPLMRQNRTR
Sequence of EIF2AK2 (human) (P19525 whole entry, looked up): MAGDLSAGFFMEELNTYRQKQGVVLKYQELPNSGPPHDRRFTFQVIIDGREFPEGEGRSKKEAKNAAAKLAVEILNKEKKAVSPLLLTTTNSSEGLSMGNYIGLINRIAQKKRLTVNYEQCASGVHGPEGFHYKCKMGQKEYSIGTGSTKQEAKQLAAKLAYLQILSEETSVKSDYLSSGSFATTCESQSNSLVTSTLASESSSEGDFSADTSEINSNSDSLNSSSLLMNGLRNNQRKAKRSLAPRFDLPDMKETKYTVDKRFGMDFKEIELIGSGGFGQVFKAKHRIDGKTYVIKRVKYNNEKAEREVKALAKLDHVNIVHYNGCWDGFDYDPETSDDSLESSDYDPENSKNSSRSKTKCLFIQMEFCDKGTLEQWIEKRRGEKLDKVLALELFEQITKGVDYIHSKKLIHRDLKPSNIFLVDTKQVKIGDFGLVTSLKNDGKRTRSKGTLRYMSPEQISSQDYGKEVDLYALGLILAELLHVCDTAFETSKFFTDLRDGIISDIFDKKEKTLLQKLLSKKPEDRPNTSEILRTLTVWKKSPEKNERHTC
Sequence of STK17A (human) (Q9UEE5 whole entry, looked up): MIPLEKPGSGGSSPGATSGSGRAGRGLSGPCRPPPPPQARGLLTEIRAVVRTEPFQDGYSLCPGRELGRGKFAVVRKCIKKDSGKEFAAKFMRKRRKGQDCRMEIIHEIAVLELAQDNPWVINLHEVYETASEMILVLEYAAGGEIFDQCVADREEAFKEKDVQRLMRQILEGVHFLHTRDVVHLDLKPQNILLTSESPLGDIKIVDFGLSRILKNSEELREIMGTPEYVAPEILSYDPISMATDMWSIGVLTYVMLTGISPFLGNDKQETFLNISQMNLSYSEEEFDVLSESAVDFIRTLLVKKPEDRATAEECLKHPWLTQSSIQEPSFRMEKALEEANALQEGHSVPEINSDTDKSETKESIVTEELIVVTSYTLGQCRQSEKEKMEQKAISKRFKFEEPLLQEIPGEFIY
Sequence of AURKA (human) (O14965 whole entry, looked up): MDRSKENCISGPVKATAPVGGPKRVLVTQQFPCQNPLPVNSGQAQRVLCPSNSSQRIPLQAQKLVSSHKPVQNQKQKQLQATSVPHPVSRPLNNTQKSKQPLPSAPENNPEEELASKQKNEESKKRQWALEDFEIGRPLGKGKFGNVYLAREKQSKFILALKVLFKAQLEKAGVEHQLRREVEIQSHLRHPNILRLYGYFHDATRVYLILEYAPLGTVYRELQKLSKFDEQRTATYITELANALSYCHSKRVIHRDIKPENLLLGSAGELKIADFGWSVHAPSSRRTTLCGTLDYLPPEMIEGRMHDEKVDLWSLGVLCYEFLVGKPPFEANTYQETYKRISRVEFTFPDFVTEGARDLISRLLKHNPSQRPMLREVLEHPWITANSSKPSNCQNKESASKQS

Structure (SMILES) | kinase still bound, per cent of control [1] [%] | kinase still bound, per cent of control [2] [%] | kinase still bound, per cent of control [3] [%] | kinase still bound, per cent of control [4] [%] | kinase still bound, per cent of control [5] [%] | kinase still bound, per cent of control [6] [%] | kinase still bound, per cent of control [7] [%] | kinase still bound, per cent of control [8] [%] | kinase still bound, per cent of control [9] [%] | kinase still bound, per cent of control [10] [%] | kinase still bound, per cent of control [11] [%] | kinase still bound, per cent of control [12] [%] | kinase still bound, per cent of control [13] [%] | kinase still bound, per cent of control [14] [%] | kinase still bound, per cent of control [15] [%] | kinase still bound, per cent of control [16] [%] | kinase still bound, per cent of control [17] [%] | kinase still bound, per cent of control [18] [%] | kinase still bound, per cent of control [19] [%] | kinase still bound, per cent of control [20] [%] | also measured
Cc1ccc(NC(=O)c2cccc(C(C)(C)C#N)c2)cc1Nc1ccc2ncn(C)c(=O)c2c1 | 100 | 100 | 85 | 100 | 100 | 100 | 100 | 100 | 100 | 100 | 91 | 85 | 5.1 | 100 | 100 | 100 | 72 | 43 | 82 | 87 | kinase still bound, per cent of control [21]: 100%; kinase still bound, per cent of control [22]: 85%; kinase still bound, per cent of control [23]: 92%; kinase still bound, per cent of control [24]: 9.6%; kinase still bound, per cent of control [25]: 100%; kinase still bound, per cent of control [26]: 0.15%; kinase still bound, per cent of control [27]: 100%; kinase still bound, per cent of control [28]: 48%; kinase still bound, per cent of control [29]: 21%; kinase still bound, per cent of control [30]: 99%; kinase still bound, per cent of control [31]: 98%; kinase still bound, per cent of control [32]: 100%; kinase still bound, per cent of control [33]: 100%; kinase still bound, per cent of control [34]: 0.25%; kinase still bound, per cent of control [35]: 5.6%; kinase still bound, per cent of control [36]: 97%; kinase still bound, per cent of control [37]: 75%; kinase still bound, per cent of control [38]: 100%; kinase still bound, per cent of control [39]: 100%; kinase still bound, per cent of control [40]: 100%
COc1cc(C(=O)NC2CCN(C)CC2)ccc1Nc1ncc2c(n1)N(C1CCCC1)CCC(=O)N2C(C)C | 100 | 100 | 100 | 100 | 100 | 100 | 100 | 100 | 100 | 100 | 100 | 100 | 100 | 100 | 100 | 100 | 100 | 100 | 100 | 100 | kinase still bound, per cent of control [21]: 100%; kinase still bound, per cent of control [22]: 100%; kinase still bound, per cent of control [23]: 100%; kinase still bound, per cent of control [24]: 100%; kinase still bound, per cent of control [25]: 100%; kinase still bound, per cent of control [26]: 0%; kinase still bound, per cent of control [27]: 100%; kinase still bound, per cent of control [28]: 100%; kinase still bound, per cent of control [29]: 100%; kinase still bound, per cent of control [30]: 100%; kinase still bound, per cent of control [31]: 100%; kinase still bound, per cent of control [32]: 100%; kinase still bound, per cent of control [33]: 100%; kinase still bound, per cent of control [34]: 100%; kinase still bound, per cent of control [35]: 100%; kinase still bound, per cent of control [36]: 100%; kinase still bound, per cent of control [37]: 100%; kinase still bound, per cent of control [38]: 100%; kinase still bound, per cent of control [39]: 100%; kinase still bound, per cent of control [40]: 100%
